Measured values taken from patent US20060205743A1, “Protein kinase inhibitors” (priority 2003, published 2006).

molecular target: MAPKAP-K2 (Homo sapiens, UniProt P49137); experiment: MAPKAP-Kinase 2 Assay (33P-ATP peptide phosphorylation, filter plate); type: biochemical; design: key: +: active; ++: more active; +++: very active; conditions: assays conducted at typically 1-100 μM
Experimental: MAPKAP-Kinase 2 Assay [Compound Preparation]
Compounds are dissolved in DMSO at a concentration of 3 mM and stored in aliquots at −20° C. Compounds in DMSO from these stock aliquots are diluted in 30% DMSO to produce initial working stock solutions of 1 mM and 3 mM. Both of these stock solutions are then subjected to 1:10 serial dilutions in 30% DMSO in order to prepare 3000, 1000, 300, 100, 30, 10, 3, 1, 0.1, 0.01 μM stock solutions. 5 μl of each stock solution is used per 50 μl reaction to give final assay concentrations of 300, 100, 30, 10, 3, 1, 0.3, 0.1, 0.01, 0.001 μM.
The kinase reaction is conducted in a round-bottomed polypropylene 96-well plate. MAPKAP-K2 is diluted to 25 mU/μl in diluent buffer (50 mM Tris/HCl. pH7.5, 0.1 mM EGTA, 0.1% (v/v) β-mercaptoethanol, 1 mg/ml BSA). 5 μl compound or 30% DMSO is added to each well followed by 25 μl substrate cocktail (10 μM ATP, 30 μM peptide (KKLNRTLSVA), 0.5 μCi ^33P-γ-ATP in 50 mM Tris pH7.5, 0.1 mM EGTA, 10 mM Mg-acetate, 0.1% BME). The reaction is initiated with the addition of 20 μl enzyme solution per well or 20 μl diluent buffer without enzyme. The plate is shaken for 10 sec and then left at room temperature for 30 min. The reaction is terminated with 50 μl 150 mM phosphoric acid. 90 μl of the reaction mixture is then transferred into a 96-well P81 filter plate (Millipore) and incubated at room temperature for 5 min. The filter plate is then washed 4 times with 200 μl 75 mM phosphoric acid per well on a plate vacuum manifold (Millipore) and dried in an oven for 2-3 h. Packard MicroScint ‘0’ (30 μl) is then added to each well, the plate is mixed for 30 min and subjected to liquid scintillation counting on a Packard TopCount.
[Interpretation] %Control=(X−B)/(Tot−B)×100 %Inhibition=100−% Control X=cpm of the test compound wells B=cpm of wells without enzyme Tot=cpm of wells with DMSO vehicle only

MAPKAP-K2, sequence (P49137 whole entry): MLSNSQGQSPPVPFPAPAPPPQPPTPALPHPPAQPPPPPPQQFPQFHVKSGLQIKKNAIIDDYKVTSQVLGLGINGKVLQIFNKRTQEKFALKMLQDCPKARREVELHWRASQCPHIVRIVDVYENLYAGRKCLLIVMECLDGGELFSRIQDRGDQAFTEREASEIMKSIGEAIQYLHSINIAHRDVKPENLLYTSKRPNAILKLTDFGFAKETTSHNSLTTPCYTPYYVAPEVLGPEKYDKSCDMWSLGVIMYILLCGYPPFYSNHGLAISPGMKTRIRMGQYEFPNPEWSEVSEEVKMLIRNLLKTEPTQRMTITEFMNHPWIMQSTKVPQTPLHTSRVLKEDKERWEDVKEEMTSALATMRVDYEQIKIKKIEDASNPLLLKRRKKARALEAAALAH

MAPKAP-K2 activity, +++:
CC(C)c1ccc(Nc2cc(NC3CCC(N)CC3)nc3ccnn23)cc1 (stereo not drawn) [Compound 37], COc1cccc(Nc2cc(NC3CCCNC3)nc3ccnn23)c1 (stereo not drawn) [Compound 97], NC1CCC(Nc2cc(Nc3ccc(C(F)(F)F)cc3Cl)n3nccc3n2)CC1 (stereo not drawn) [Compound 91], Cc1ccc(Nc2cc(NC3CCC(N)CC3)nc3ccnn23)cc1C (stereo not drawn) [Compound 43], CC(C)Oc1ccc(Nc2cc(NC3CCC(N)CC3)nc3ccnn23)c(F)c1 (stereo not drawn) [Compound 113], NC1CCC(Nc2cc(Nc3ccc(I)cc3)n3nccc3n2)CC1 (stereo not drawn) [Compound 85], N[C@H]1CC[C@H](Nc2cc(Nc3ccc(Cl)cc3)n3nccc3n2)CC1 [Compound 12], COc1ccc(Nc2cc(N[C@H]3CC[C@H](N)CC3)nc3ccnn23)cc1Cl [Compound 5], NC1CCC(Nc2cc(Nc3ccc(F)cc3Cl)n3nccc3n2)CC1 (stereo not drawn) [Compound 108], COc1ccc(Nc2cc(N[C@H]3CC[C@H](N)CC3)nc3ccnn23)cc1 [Compound 17], NC1CCC(Nc2cc(Nc3ccc4c(c3)OCO4)n3nccc3n2)CC1 (stereo not drawn) [Compound 51], Cc1ccc(Nc2cc(N[C@H]3CC[C@H](N)CC3)nc3ccnn23)cc1Cl [Compound 6], CCOc1cccc(Nc2cc(NC3CCCNC3)nc3ccnn23)c1 (stereo not drawn) [Compound 105], COc1ccc(Nc2cc(NC3CCC(N)CC3)nc3ccnn23)c(F)c1 (stereo not drawn) [Compound 112], N[C@H]1CC[C@H](Nc2cc(Nc3ccc(O)cc3)n3nccc3n2)CC1 [Compound 70], N[C@H]1CC[C@H](Nc2cc(Nc3cc(Cl)ccc3Cl)n3nccc3n2)CC1 [Compound 68], N[C@H]1CC[C@H](Nc2cc(Nc3c(Cl)cccc3Cl)n3nccc3n2)CC1 [Compound 69], N[C@H]1CC[C@H](Nc2cc(Nc3ccccc3F)n3nccc3n2)CC1 [Compound 66], CCCCOc1ccc(Nc2cc(NC3CCC(N)CC3)nc3ccnn23)cc1 (stereo not drawn) [Compound 104], N[C@H]1CC[C@H](Nc2cc(Nc3ccc(F)cc3F)n3nccc3n2)CC1 [Compound 22], NC1CCC(Nc2cc(Nc3ccccc3Br)n3nccc3n2)CC1 (stereo not drawn) [Compound 102], Cc1cccc(Nc2cc(NC3CCC(N)CC3)nc3ccnn23)c1 (stereo not drawn) [Compound 44], CN(C)c1ccc(Nc2cc(N[C@H]3CC[C@H](N)CC3)nc3ccnn23)cc1 [Compound 15], N[C@H]1CC[C@H](Nc2cc(Nc3ccccc3Cl)n3nccc3n2)CC1 [Compound 13], CN[C@H]1CC[C@H](Nc2cc(Nc3ccc(F)c(Cl)c3)n3nccc3n2)CC1 [Compound 87], CCOc1cccc(Nc2cc(N[C@H]3CC[C@H](N)CC3)nc3ccnn23)c1 [Compound 65], CSc1ccc(Nc2cc(N[C@H]3CC[C@H](N)CC3)nc3ccnn23)cc1 [Compound 26], CN1CCC(N[C@H]2CC[C@H](Nc3cc(Nc4ccc(F)c(Cl)c4)n4nccc4n3)CC2)CC1 [Compound 136], c1ccc(COc2cccc(Nc3cc(NC4CCCNC4)nc4ccnn34)c2)cc1 (stereo not drawn) [Compound 98]

MAPKAP-K2 activity, ++:
CN1CCC(Nc2cc(Nc3ccc(F)c(Cl)c3)n3nccc3n2)CC1 [Compound 56], NC1CCC(Nc2cc(Nc3ccccc3C(F)(F)F)n3nccc3n2)CC1 (stereo not drawn) [Compound 93], COc1ccc(Nc2cc(NC3CCC(N)CC3)nc3ccnn23)c(OC)c1OC (stereo not drawn) [Compound 103], NC1CCC(Nc2cc(NCc3ccc(Cl)c(Cl)c3)n3nccc3n2)CC1 (stereo not drawn) [Compound 39], N[C@H]1CC[C@H](Nc2cc(NCc3ccccc3Cl)n3nccc3n2)CC1 [Compound 71], Fc1ccc(Nc2cc(NC3CCC(NCC4CCOC4)CC3)nc3ccnn23)cc1Cl (stereo not drawn) [Compound 127], Fc1ccc(Nc2cc(NC3CCC(NCCCCCc4ccccc4)CC3)nc3ccnn23)cc1Cl (stereo not drawn) [Compound 132], N[C@H]1CC[C@H](Nc2cc(NCc3ccc(Cl)cc3)n3nccc3n2)CC1 [Compound 14], Fc1ccc(Nc2cc(NC3CCNC3)nc3ccnn23)cc1Cl (stereo not drawn) [Compound 73], N[C@H]1CC[C@H](Nc2cc(NCc3ccccn3)n3nccc3n2)CC1 [Compound 90], COc1ccccc1Nc1cc(NC2CCCNC2)nc2ccnn12 (stereo not drawn) [Compound 96], N#C/N=C(\N)NC1CCC(Nc2cc(Nc3ccc(F)c(Cl)c3)n3nccc3n2)CC1 (stereo not drawn) [Compound 79], Fc1ccc(Nc2cc(NC3CCC(NCc4ccsc4)CC3)nc3ccnn23)cc1Cl (stereo not drawn) [Compound 129], NC1CCC(Nc2cc(NCCc3ccccc3)n3nccc3n2)CC1 (stereo not drawn) [Compound 29], CC(C)(C)c1ccc(Nc2cc(NC3CCC(N)CC3)nc3ccnn23)cc1 (stereo not drawn) [Compound 34], Fc1ccc(Nc2cc(NC3CCNCC3)nc3ccnn23)cc1Cl [Compound 88]

MAPKAP-K2 activity, +:
Fc1ccc(Nc2cc(NC3CCC(NCc4ccccc4)CC3)nc3ccnn23)cc1Cl (stereo not drawn) [Compound 120], CC(CN(C)C)N[C@H]1CC[C@H](Nc2cc(Nc3ccc(F)c(Cl)c3)n3nccc3n2)CC1 (stereo partly drawn) [Compound 137], NC1CCCC(Nc2cc(Nc3ccc(F)c(Cl)c3)n3nccc3n2)C1 (stereo not drawn) [Compound 61], N[C@H]1CC[C@H](Nc2cc(Nc3ccc(F)c(Cl)c3)n3nccc3n2)CC1 [Compound 18], CC(Nc1cc(N[C@H]2CC[C@H](N)CC2)nc2ccnn12)c1ccc(F)cc1 (stereo partly drawn) [Compound 24], O=C(NC1CCC(Nc2cc(Nc3ccc(F)c(Cl)c3)n3nccc3n2)CC1)c1ccccc1 (stereo not drawn) [Compound 28], CC(=O)NC1CCC(Nc2cc(Nc3ccc(F)c(Cl)c3)n3nccc3n2)CC1 (stereo not drawn) [Compound 25], Fc1ccc(Nc2cc(N[C@H]3CC[C@H](NC4CCC(c5ccccc5)CC4)CC3)nc3ccnn23)cc1Cl (stereo partly drawn) [Compound 138], CNC(=O)NC1CCC(Nc2cc(Nc3ccc(F)c(Cl)c3)n3nccc3n2)CC1 (stereo not drawn) [Compound 38], CN(CCN)c1cc(Nc2ccc(F)c(Cl)c2)n2nccc2n1 [Compound 80], CCC(CC)CNC1CCC(Nc2cc(Nc3ccc(F)c(Cl)c3)n3nccc3n2)CC1 (stereo not drawn) [Compound 130], NCCCCNc1cc(Nc2ccc(F)c(Cl)c2)n2nccc2n1 [Compound 78], NCCCNc1cc(Nc2ccc(F)c(Cl)c2)n2nccc2n1 [Compound 94], Fc1ccc(Nc2cc(N3CCNCC3)nc3ccnn23)cc1Cl [Compound 81], CNC(=S)N[C@H]1CC[C@H](Nc2cc(Nc3ccc(F)c(Cl)c3)n3nccc3n2)CC1 [Compound 57]
